Where two headings read alike, the source gives them in different places.
Assays:
tubulin [1] = assay: Colchicine competition assay; type: binding
Source text: The compounds have been further tested for their performance in colchicine competition assays, and the results tabulated in Tables 9 to 13.

tubulin [2] = assay: Tubulin assembly inhibition assay; type: biochemical
H460 xenograft = H460 xenograft mice, X-Rays plus drug; type: in vivo; details: X-Ray plus drug treated group, FIG. 6
Source text: Whilst X-Ray treatment was effective immediately after treatment, fresh tumour growth became evident by 36 days.

[3] = tested on: H460 human non small cell lung cells; assay: H460 xenograft in nude mice; type: in vivo
K562 cell line = assay: Cytotoxicity (IC50) assay against the K562 cell line; type: cell-based; details: for activity (in words): cytotoxicity, qualitative statements; for IC50: Homo sapiens, K562 cell line, read-out: IC50 values in the cytotoxicity tests
Method: Compounds based on the aurone structure were prepared as conformationally restricted analogues of the chalcones. They were prepared from the appropriate benzofuranone.

[4] = Flow cytometry, percentage of cells in the phases of the cell cycle; type: cell-based; details: for % Cells G2-M: control 12.08; for % Cells S-phase: control 32.87; for % Cells G0-G1: control 55.05
Source text: Tables 14 and 15 show the results of tubulin assembly assays and flow cytometry studies on selected compounds of the present invention.

[5] = tested on: P388 murine leukaemia cell line; details: cell line not stated for this statement; cited from earlier work
[6] = tubulin assembly, corrected values scaled by a factor of 5, read-out: IC50 μM (corrected)
[7] = tubulin assembly, original experimental value, read-out: IC50 μM (original)
[8] = tubulin assembly assay, Table 14, read-out: IC(TA)50

| Structure (SMILES) | IC50 (tubulin [2]; [6]) | IC50 (tubulin [2]; [7]) | Colchicine competition, Drug:Protein Ratio 1:1 (tubulin [1]) | Colchicine competition, Drug:Protein Ratio 10:1 (tubulin [1]) | further results |
| --- | --- | --- | --- | --- | --- |
| COc1ccc(/C=C(\C)C(=O)c2cc(OC)c(OC)c(OC)c2)cc1F [DR5, (E)-3-(3″-Fluoro-4″-methoxyphenyl)-2-methyl-1-(3′,4′,5′-trimethoxyphenyl)-2-propen-1-one] | 3.5 µM | 0.7 µM | 14 | 6 | tumour volume / potency with concomitant X-Rays (H460 xenograft): some initial increase in tumour volume between days 27 and 32, though this was followed by subsequent decrease to a steady baseline at day 34; tumour volume / potency with concomitant X-Rays (H460 xenograft; listed as DRA 212): Further improvement in the potency; necrosis in tumour ([3]; 24 hours after treatment with 0.75 MTD): necrosis in H460 cancer cells; adverse side effects on healthy surrounding tissue ([3]; H460 xenograft nude mice): no adverse side effects on healthy surrounding tissue; activity (in words) (K562 cell line): most active fluorinated analogue |
| COc1cc(C(=O)/C(C)=C/c2cc(F)c(OC)c(F)c2)cc(OC)c1OC [DR6, (E)-3-(3″, 5″-Difluoro-4″-methoxyphenyl)-2-methyl-1-(3′, 4′,5′-trimethoxyphenyl)-2-propen-1-one] | 12 µM | 2.4 µM | 33 | 25 |  |
| COc1ccc(C=CC(=O)c2ccc(OC)c(OC)c2OC)cc1O [DR8, (E)-3-(3″-Hydroxy-4″-methoxyphenyl)-1-(2′,3′,4′-trimethoxyphenyl)-2-propen-1-one] | 2.3 µM | 0.45 µM |  |  | melting point: 85 to 86 °C |
| CO/C(=C\c1ccc(OC)c(O)c1)C(=O)c1cc(OC)c(OC)c(OC)c1 [DR13, (Z)-3-(3″-Hydroxy-4″-methoxyphenyl)-2-methoxy-1-(3′,4′,5′-timethoxyphenyl)-2-propen-1-one] | 2.6 µM | 0.51 µM | 12 | 5 | melting point: 120 to 122 °C |
| CO/C(=C\c1ccc(OC)c(F)c1)C(=O)c1cc(OC)c(OC)c(OC)c1 [DR14, (Z)-3-(3″-Fluoro-4″-methoxyphenyl)-2-methoxy-1-(3′,4′,5′-trimethoxyphenyl)-2-propen-1-one] | 2.4 µM | 0.47 µM | 22 | 8 | melting point: 110 to 112 °C |
| CO/C(=C\c1cc(F)c(OC)c(F)c1)C(=O)c1cc(OC)c(OC)c(OC)c1 [DR15, (Z)-3-(3″,5″-Difluoro-4″-methoxyphenyl)-2-methoxy-1-(3′,4′,5′-trimethoxyphenyl)-2-propen-1-one] | 8.5 µM | 1.7 µM | 59 | 41 |  |
| COc1ccc(C=C2Oc3cc(OC)c(OC)c(OC)c3C2=O)cc1O [DR23] | > 100 µM | > 50 µM |  |  |  |
| COc1ccc(C=C2Oc3cc(OC)c(OC)c(OC)c3C2=O)cc1F [DR24] | > 100 µM | > 50 µM |  |  |  |
| COc1ccc(/C=C2\Oc3c(cc(OC)c(OC)c3OC)C2=O)cc1O [DR27, 2-[(Z)-(3′-Hydroxy-4′-methoxyphenyl)methylidene]-5,6,7-trimethoxy-1-benzofuran-3-one] | > 100 µM | 22 µM | 78 | 59 | melting point: 192 to 193 °C; IC50 (K562 cell line): 0.05 µM |
| COc1ccc(C=C2Oc3c(cc(OC)c(OC)c3OC)C2=O)cc1F [DR28] | > 100 µM | > 50 µM |  |  | IC50 (K562 cell line): 0.11 µM |
| COc1cc2c(c(OC)c1OC)OC(=Cc1ccc(O)c(O)c1)C2=O [DR31] | > 100 µM | > 50 µM |  |  |  |
| COc1ccc(-c2cc(=O)c3c(OC)c(OC)c(OC)cc3o2)cc1O [DR33, 2-(3′-Hydroxy-4′-methoxyphenyl)-5,6,7-trimethoxy-4H-chromen-4-one] | > 100 µM | > 50 µM |  |  |  |
| COc1ccc(-c2cc(=O)c3cc(OC)c(OC)c(OC)c3o2)cc1O [DR36, 2-(3′-Hydroxy-4′-methoxyphenyl)-6,7,8-trimethoxy-4H-chromen-4-one] | > 100 µM | 25 µM | 100 | 43 | melting point: 199 to 200 °C |
| COc1ccc(C2CC(=O)c3cc(OC)c(OC)c(OC)c32)cc1F (stereo not drawn) [DR59] | 20 µM | 4 µM | 100 | 61 |  |
| COc1ccc(C2CC(O)c3cc(OC)c(OC)c(OC)c32)cc1F (stereo not drawn) [DR60] | > 100 µM | > 50 µM |  |  |  |
| COc1ccc(/C=C/C(=O)c2cc(OC)c(OC)c(OC)c2)cc1N [MW65, (E)-3-(3″-Amino-4″-methoxyphenyl)-1-(3′,4′,5′-trimethoxyphenyl)-2-propen-1-one] |  |  |  |  | % Cells Debris [4]: 14.10%; % Cells G2-M [4]: 18.52%; % Cells S-phase [4]: 33.18%; % Cells G0-G1 [4]: 48.30%; melting point: 90 to 91 °C |
| COc1ccc(/C=C(\C)C(=O)c2cc(OC)c(OC)c(OC)c2)cc1[N+](=O)[O-] [MW68] |  |  |  |  | % Cells Debris [4]: 11.27%; % Cells G2-M [4]: 28.29%; % Cells S-phase [4]: 35.36%; % Cells G0-G1 [4]: 36.35%; IC50 (tubulin [2]; [8]): > 10 µM |
| COc1ccc(/C=C(\C)C(O)c2cc(OC)c(OC)c(OC)c2)cc1O (stereo not drawn) [MW70] |  |  |  |  | % Cells Debris [4]: 15.27%; % Cells G2-M [4]: 23.70%; % Cells S-phase [4]: 32.80%; % Cells G0-G1 [4]: 43.50%; IC50 (tubulin [2]; [8]): > 10 µM |
| COc1ccc(CC(C)C(=O)c2cc(OC)c(OC)c(OC)c2)cc1O (stereo not drawn) [MW71] |  |  |  |  | % Cells Debris [4]: 19.31%; % Cells G2-M [4]: 28.08%; % Cells S-phase [4]: 36.09%; % Cells G0-G1 [4]: 35.84%; IC50 (tubulin [2]; [8]): 4 µM |
| COc1ccc(C2CC(=O)c3cc(OC)c(OC)c(OC)c32)cc1N (stereo not drawn) [MW74, 3-(3′-Amino-4′-methoxyphenyl)-4,5,6-trimethoxy-1-indanone] |  |  |  |  | % Cells Debris [4]: 12.72%; % Cells G2-M [4]: 29.10%; % Cells S-phase [4]: 33.76%; % Cells G0-G1 [4]: 37.14%; IC50 (tubulin [2]; [8]): ~10 µM |
| COc1ccc(C2CCc3cc(OC)c(OC)c(OC)c32)cc1N (stereo not drawn) [MW82] |  |  |  |  | % Cells Debris [4]: 18.58%; % Cells G2-M [4]: 23.34%; % Cells S-phase [4]: 36.26%; % Cells G0-G1 [4]: 40.40%; IC50 (tubulin [2]; [8]): > 10 µM |
| COc1ccc(/C=C/C(=O)c2cc(OC)c(OC)c(OC)c2)cc1OP(=O)([O-])[O-].[Na+].[Na+] [SD174a, Disodium 3′-phosphate salt of (E)-1-(3′-Hydroxy-4′-methoxyphenyl)-3-(3″,4″,5″-trimethoxyphenyl)prop-1-en-3-one] |  |  |  |  | activity (in words) (K562 cell line): potently active |
| COc1ccc(/C=C(\C)C(=O)c2cc(OC)c(OC)c(OC)c2)cc1OP(=O)([O-])[O-].[Na+].[Na+] [SD174b, Disodium 3′-phosphate salt of (E)-1-(3′-Hydroxy-4′-methoxyphenyl)-2-methyl-3-(3″,4″,5″-trimethoxyphenyl)prop-1-en-3-one] |  |  |  |  | activity (in words) (K562 cell line): potently active |
| COc1ccc(/C=C/c2cc(OC)c(OC)c(OC)c2)cc1O [trans-combretastatin A-4] |  |  |  |  | cell growth inhibition (in words) [5]: μM range |

Reference: patent publication US20050065213A1 (priority 2001, published 2005)
